Starred links: 1 amine or outer side, 2 acyl side, 3 side chain; linkers in the order of their positions; H or OH if unused. Positions of bridges follow the written chain, without caps; N, C: chain ends. Non-standard residues stand in square brackets, D forms with d. Residues, ends and D or L forms follow the SMILES beside them. Groups on a side chain read outwards from the residue. *: point of attachment. X1 = CCN1C(=CC=CC2=[N+](CCCCCC(=O)*)c3ccc(S(=O)(=O)O)cc3C2(C)C)C(C)(C)c2cc(S(=O)(=O)[O-])ccc21; d(εLys) = N[C@H](CCCCN[*:1])C(=O)[*:2]; X2 = O=C(CC1(S[*:2])CCCCC1)[*:1]; PEG5 = NCCOCCOCCOCCOCCOCCC(=O)O; Orn = NCCC[C@H](N)C(=O)O; Mpa = O=C(O)CCS
Experiments:
[1] = target: T1, hOTR (Homo sapiens, UniProt P30559); test: Radioligand displacement and saturation binding, membranes of HEK293 cells stably expressing hOTR, [3H]-OT; details: for Ki: [3H]-OT, mean ± SD, duplicates, at least three independent experiments, read-out: Ki hOTR
T1 construct: expressed in transfected cells
T1 sequence (P30559 1-389): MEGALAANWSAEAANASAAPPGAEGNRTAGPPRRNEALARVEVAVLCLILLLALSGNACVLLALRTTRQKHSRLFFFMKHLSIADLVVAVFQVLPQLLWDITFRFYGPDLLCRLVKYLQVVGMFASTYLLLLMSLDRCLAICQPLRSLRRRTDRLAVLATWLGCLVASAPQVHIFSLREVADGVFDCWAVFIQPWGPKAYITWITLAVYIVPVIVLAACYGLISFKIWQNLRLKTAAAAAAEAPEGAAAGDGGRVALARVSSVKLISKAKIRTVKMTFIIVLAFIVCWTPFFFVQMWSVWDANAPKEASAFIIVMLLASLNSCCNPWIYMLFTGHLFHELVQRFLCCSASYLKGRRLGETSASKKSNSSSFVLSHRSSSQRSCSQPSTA
Procedure: (§1) Membrane preparation for radioligand assays. HEK293 cells were used for stable expression of GFP-tagged
(§2) human OTR, V1aR, V1bR, and V2R isoforms and transient expression of murine OTR, V1aR, V1bR, and V2R
(§3) isoforms. Cell culture work was performed under sterile conditions with DMEM high glucose containing 10%
(§4) FBS, and 50 U/mL P/S. Cells were cultured in 10 cm diameter cell culture dishes at 37°C in a humidified
(§5) atmosphere with 5% CO2, and cells were passaged at 70-90% confluency.
(§6) medium of stable cell lines at 0.5 mg/mL to sustain selection pressure, and cells were harvested at 90% confluency
(§7) for membrane preparation. For transient expression of murine receptors, 60% confluent wild-type HEK293 cells
(§8) were transfected using the jetPRIME transfection reagent according to the manufacturer’s protocol and harvested
(§9) 48 h post-transfection. For membrane preparation, cells were washed with ice-cold PBS pH 7.4, scraped into fresh
(§10) PBS on ice, and centrifuged at 4°C and 178 g for 10 min. The pellet was resuspended in a TRIS buffer solution
(§11) ice-cold water bath sonicator. The obtained solution was centrifuged for 20 min at 54,192 g and 4°C. The obtained
(§12) pellet was resuspended in TRIS buffer without protease inhibitors, homogenized with an ultrasonicator, aliquoted,
(§13) and stored at -80°C until further use. A BCA assay was used to determine the protein concentration of the
(§14) Radioligand displacement and saturation experiments. Assay solutions consisting of competing ligand,
(§15) radioligand, and membrane preparation were incubated for 1 h at 37°C. Standard binding buffer solution (50 mM
(§16) TRIS, 5 mM MgCl2, 0.1% BSA, pH 7.4) was used to prepare all dilutions; the final assay volume was 200 µL.
(§17) concentrations were 8 μg/vial for hOTR, 5 μg/vial for hV1aR, and 3 μg/vial for hV1bR and hV2R, respectively , and
(§18) 4 μg/vial for mOTR, 1.5 μg/vial for m V1aR, 3 μg/vial for mV 1bR, and 10 μg/vial for mV 2R. To assess non-specific
Specific binding was determined by
(§19) subtraction of the non-specific binding from the total binding. In radioligand displacement experiments, semi -
(§20) logarithmically spaced concentrations of respective test ligands were applied to determine K i values based on
(§21) assessed Kd values of radiotracers and by fitting the data to a three -parameter logistic Hill equation and applying
(§22) the Cheng and Prusoff approximation. 10 In case of human receptors from stable cell lines, Kd and Bmax values were
(§23) In case of murine receptors from transient
(§24) was performed using GraphPad Prism (version 9.5.1) . After incubation, membranes were filtered and washed on
(§25) a Skatron Cell Harvester using polyethyleneimine -coated glass fiber filters (type B, soaked in 0.1% aqueous
1 mM MgCl2, pH 7.4, 4°C). The soaked filter pieces were transferred into counter vials, and 2 mL of scintillation
cocktail (LSC Universalcocktail) was added to each vial. After 1 h incubation at 25°C on a shaker, radioligand
concentration was determined using a Tri -Carb liquid scintillation analyzer.
response curves were obtained from radioligand displacement experiments of membrane preparations of HEK293
Values were normalized to the percentage
of maximum binding (i.e., no competing ligand present). Specific binding was obtained from the subtraction of
non-specific binding from total binding. K i values were derived from one-site-fitted competition binding curves.

[2] = test system: mouse embryonic hippocampal neurons; test: Tracer uptake in primary mouse hippocampal neurons; type: cell-based
Procedure: (§26) Finally, we evaluated whether tracer (11) is applicable in primary cells endogenously expressing OTR.
(§27) Primary UtSMC and hippocampal neuronal cultures.
(§28) Muscle Cell Basal Medium 2 (PromoCell), including supplements (PromoCell) and P/S (Gibco) at 37°C and 5%
(§29) CO2. Cells were trypsinized with 0.1% Trypsin/EDTA (Gibco) and plated on glass -bottom 96-well plates (CellVis)
(§30) at a density of 10,000 cells/well in full growth medium. The next day, cells were stimulated with tracer ( 11), OTA ,
(§31) dissociated with flame -polishe d Pasteur pipettes in Hank’s balanced salt solution (HBSS, Gibco). Tissue pieces
(§32) were subsequently enzymatically dissociated with 0.1% Trypsin/EDTA (Gibco) in Neurobasal A (NBA, Gibco)
(§33) containing 1,000U/mL DNase (Sigma) for 5 min at 37°C. Cells were triturated with flamed Pasteur pipettes,
(§34) filtered through a 40 µm nylon mesh ( Thermo Fisher Scientific ), centrifuged at 200 g for 5 min, and washed up to
(§35) three times in NBA containing P/S (Gibco), GlutaMax (Gibco) , and B27 supplement (Gibco). Cells were plated at
(§36) 20,000 cells/well on PDL -coated (Sigma) glass -bottom black 96 -well microscopy plates (Cellvis) and grown at
(§37) 37°C with 5% CO 2. Half of the medium was replaced every 3 -4 days. After 13 -14 days in vitro , neuronal cultures
(§38) were exposed to 100 nM tracer ( 11) for one hour, with or without 30-min pretreatment with 10 µM of the peptide
antagonist OTA. […]

[3] = test system: human uterine smooth muscle cells (UtSMC); test: Stimulation of primary human uterine smooth muscle cells (UtSMC); type: cell-based
Procedure: as §26, §27, §28, §29, §30, §31, §32, §33, §34, §35, §36, §37, §38
antagonist OTA. In parallel, neurons were exposed to 100 nM of the scrambled tracer SCR for 1 h. After
stimulations, cells were washed with ice-cold PBS and fixed with 4% paraformaldehyde for 30 min on ice. Next,
washed again in PBS, and directly imaged on a Zeiss LSM880 confocal microscope.

[4] = target: T2, hOTR-GFP in HEK293 cells (Homo sapiens, UniProt P30559); test: Live-cell imaging (ZEISS Lattice SIM) of hOTR-GFP internalization; details: 10 and 100 nM tracer
T2 sequence (P30559 1-389): T1 sequence (P30559 1-389)
Procedure: We first exposed hOTR‐GFP cells to 10 and 100 nM of tracer (11) during acquisition with a ZEISS Lattice SIM microscope (Movies S1 and S2). […] To further disentangle the dynamics of our tracer‐mediated OTR engagement and trafficking, we evaluated its applicability in single‐particle tracking (SPT) in living cells. We cultured HEK293 (parent cells) and HEK293 cells stably expressing hOTR‐GFP (HEK293‐hOTR‐GFP) and performed total internal reflection microscopy (TIRFM) SPT universal point accumulation imaging in nanoscale topography (uPAINT) following the addition of 1 nM of tracer (10). […] This concentration was selected to facilitate the detection and tracking of single molecules of the fluorescent agonist tracer following binding to hOTR at the plasma membrane by uPAINT. […] We first assessed the number of tracks (indicative of the number of single molecules detected/tracked). […] We quantified the mean squared displacement of each trajectory to calculate its apparent diffusion coefficient. The diffusion coefficient of each trajectory of the tracer bound to hOTR was plotted as a frequency distribution (Figure 7b2 ).
Live cell imaging. For 3D live cell imaging, attached and serum -starved HEK293-hOTR-GFP cells in 96-well
glass bottom plates were imaged on a ZEISS Lattice SIM Microscope using a 40x oil objective and SIM 2 post- […]

[5] = target: T3, mV2R (Mus musculus, UniProt O88721); test: Radioligand displacement, membranes of HEK293 cells transiently expressing mV2R; type: binding; details: murine receptor, transient expression; mean ± SD
T3 construct: expressed in transfected cells; host or cells: wild-type HEK293, transient transfection (jetPRIME); membrane preparation
Procedure: as §1, §2, §3, §4, §5, §6, §7, §8, §9, §10
(§39) The obtained solution was centrifuged for 20 min at 54,192 g and 4°C. The obtained […]
(§40) assessed Kd values of radiotracers and by fitting the data to a three -parameter logistic Hill equation and applying […]
(§41) concentration was determined using a Tri -Carb liquid scintillation analyzer. […]

[6] = target: T2, hOTR-GFP in HEK293 cells; test: hOTR-GFP internalization and tracer uptake, confocal microscopy after fixation/ICC; type: cell-based; parameters: expressed in transfected cells
Source text: To validate the application scope of our tracers for biological systems and post‐hoc imaging, we used HEK293 cells stably overexpressing human OTR or V1aR, tagged with a C‐terminal fused green fluorescent protein to visualize receptor trafficking (hOTR‐GFP or hV1aR‐GFP, respectively).
subsequently washed with PBS and processed for immunocytochemistry.
Immunocytochemistry and imaging. Unspecific protein binding was quenched with 5% normal donkey serum
(Jackson ImmunoResearch), 2% bovine serum albumin (Sigma-Aldrich, Merck), and 0.2% Triton X-100 (Sigma-
Aldrich, Merck) in PBS. Next, cells were exposed to primary antibody cocktails containing FITC-conjugated goat-
anti-GF (1:2000, Sigma-Aldrich, Merck) and mouse pCREB (1:300, Sigma-Aldrich, Merck) in PBS with 2%
normal donkey serum, 0.1% BSA, and 0.2% Triton X-100 overnight at 4°C. After three PBS washing steps, wells
were incubated with secondary antibody cocktails (1:400, Jackson Immuno Research) containing suitable
were mounted with glycerol gelatin (Sigma-Aldrich, Merck) and imaged on a Zeiss LSM 780/880 confocal
microscope (Zeiss). Images were analyzed and equally contrasted for visualization with ZEN Pro (Zeiss) and

[7] = target: T4, mV1bR (Mus musculus, UniProt Q9WU02); test: Radioligand displacement, membranes of HEK293 cells transiently expressing mV1bR; type: binding; details: murine receptor, transient expression; mean ± SD
T4 construct: expressed in transfected cells; host or cells: wild-type HEK293, transient transfection (jetPRIME); membrane preparation
T4 sequence (Q9WU02 1-421): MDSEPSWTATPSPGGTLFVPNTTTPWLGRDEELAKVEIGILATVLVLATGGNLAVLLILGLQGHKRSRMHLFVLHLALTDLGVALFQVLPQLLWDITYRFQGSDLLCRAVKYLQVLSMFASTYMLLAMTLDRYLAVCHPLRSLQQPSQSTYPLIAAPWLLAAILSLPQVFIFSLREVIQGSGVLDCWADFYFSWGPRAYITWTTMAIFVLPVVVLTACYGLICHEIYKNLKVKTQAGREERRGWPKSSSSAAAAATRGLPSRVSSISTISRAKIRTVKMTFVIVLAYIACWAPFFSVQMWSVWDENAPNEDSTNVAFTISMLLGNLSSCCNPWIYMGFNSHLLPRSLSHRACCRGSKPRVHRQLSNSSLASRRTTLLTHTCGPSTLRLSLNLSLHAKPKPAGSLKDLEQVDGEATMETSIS
Procedure: as §1, §2, §3, §4, §5, §6, §7, §8, §9, §10, §39, §40, §41

[8] = target: T5, hV2R (Homo sapiens, UniProt P30518); test: Radioligand displacement and saturation binding, membranes of HEK293 cells stably expressing hV2R, [3H]-VP; details: read-out: Ki hV2R
T5 construct: expressed in transfected cells; membrane preparation
Procedure: as §1, §2, §3, §4, §5, §6, §7, §8, §9, §10
(§42) ice-cold water bath sonicator. The obtained solution was centrifuged for 20 min at 54,192 g and 4°C. The obtained […]
Specific binding was determined by […]
as §40, §41

[9] = target: T6, hV1bR (Homo sapiens, UniProt P47901); test: Radioligand displacement and saturation binding, membranes of HEK293 cells stably expressing hV1bR, [3H]-VP; details: read-out: Ki hV1bR
T6 construct: expressed in transfected cells; membrane preparation
T6 sequence (P47901 1-424): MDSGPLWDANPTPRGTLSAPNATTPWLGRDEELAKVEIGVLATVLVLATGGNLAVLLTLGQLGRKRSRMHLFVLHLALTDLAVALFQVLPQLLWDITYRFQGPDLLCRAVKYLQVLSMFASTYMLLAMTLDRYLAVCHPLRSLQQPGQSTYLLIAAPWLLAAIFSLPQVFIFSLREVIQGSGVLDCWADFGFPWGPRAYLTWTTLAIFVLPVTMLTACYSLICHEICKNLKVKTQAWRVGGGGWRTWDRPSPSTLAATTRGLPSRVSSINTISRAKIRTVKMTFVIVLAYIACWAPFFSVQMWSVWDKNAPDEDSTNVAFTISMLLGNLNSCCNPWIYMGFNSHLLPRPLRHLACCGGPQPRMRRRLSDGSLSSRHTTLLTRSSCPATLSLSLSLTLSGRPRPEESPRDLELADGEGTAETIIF
Procedure: as §1, §2, §3, §4, §5, §6, §7, §8, §9, §10, §42
Specific binding was determined by […]
as §40, §41

[10] = target: T7, mOTR (Mus musculus, UniProt P97926); test: Radioligand displacement, membranes of HEK293 cells transiently expressing mOTR; type: binding, murine
T7 construct: expressed in transfected cells; host or cells: wild-type HEK293, transient transfection (jetPRIME); membrane preparation
T7 sequence (P97926 1-388): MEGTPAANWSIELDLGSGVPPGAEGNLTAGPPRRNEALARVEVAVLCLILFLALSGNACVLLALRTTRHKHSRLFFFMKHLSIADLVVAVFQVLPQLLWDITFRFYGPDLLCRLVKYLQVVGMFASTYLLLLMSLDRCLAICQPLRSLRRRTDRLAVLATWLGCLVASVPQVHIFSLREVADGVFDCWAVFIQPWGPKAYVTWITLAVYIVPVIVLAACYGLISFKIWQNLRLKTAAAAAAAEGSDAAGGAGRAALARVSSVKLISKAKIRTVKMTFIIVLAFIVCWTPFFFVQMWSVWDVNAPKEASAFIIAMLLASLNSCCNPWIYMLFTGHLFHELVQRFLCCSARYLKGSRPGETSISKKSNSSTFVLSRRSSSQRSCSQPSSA
Procedure: as §1, §2, §3, §4, §5, §6, §7, §8, §9, §10, §11, §12, §13, §14, §15, §16, §17, §18
Specific binding was determined by
as §19, §20, §21, §22, §23, §24, §25
1 mM MgCl2, pH 7.4, 4°C). […]
as §41

[11] = target: T8, mV1aR (Mus musculus, UniProt Q62463); test: Radioligand displacement, membranes of HEK293 cells transiently expressing mV1aR; type: binding; details: murine receptor, transient expression; mean ± SD
T8 construct: expressed in transfected cells; host or cells: wild-type HEK293, transient transfection (jetPRIME); membrane preparation
Procedure: as §1, §2, §3, §4, §5, §6, §7, §8, §9, §10, §39, §40, §41

[12] = test system: rat embryonic hippocampal neurons; test: Tracer uptake in primary rat hippocampal neurons; type: cell-based; details: 10 µM, 30 min
Procedure: as §26, §27, §28, §29, §30, §31, §32, §33, §34, §35, §36, §37, §38
antagonist OTA. […]

[13] = target: T9, hV1aR (Homo sapiens, UniProt P37288); test: Radioligand displacement and saturation binding, membranes of HEK293 cells stably expressing hV1aR, [3H]-VP; details: read-out: Ki hV1aR
T9 construct: expressed in transfected cells
T9 sequence (P37288 whole entry): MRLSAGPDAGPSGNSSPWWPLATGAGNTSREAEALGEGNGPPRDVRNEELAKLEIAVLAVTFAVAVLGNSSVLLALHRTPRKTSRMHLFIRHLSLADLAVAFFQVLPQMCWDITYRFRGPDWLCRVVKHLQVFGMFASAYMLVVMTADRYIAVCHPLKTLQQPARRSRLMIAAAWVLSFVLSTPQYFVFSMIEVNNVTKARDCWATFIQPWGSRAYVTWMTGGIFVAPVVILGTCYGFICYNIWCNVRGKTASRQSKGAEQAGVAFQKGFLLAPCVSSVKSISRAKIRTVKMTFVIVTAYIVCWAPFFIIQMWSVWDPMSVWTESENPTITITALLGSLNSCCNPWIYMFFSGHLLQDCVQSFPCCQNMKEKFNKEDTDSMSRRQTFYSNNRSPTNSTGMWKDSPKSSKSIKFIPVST
Procedure: as §1, §2, §3, §4, §5, §6, §7, §8, §9, §10, §42
Specific binding was determined by […]
as §40, §41

T3 sequence (O88721 whole entry): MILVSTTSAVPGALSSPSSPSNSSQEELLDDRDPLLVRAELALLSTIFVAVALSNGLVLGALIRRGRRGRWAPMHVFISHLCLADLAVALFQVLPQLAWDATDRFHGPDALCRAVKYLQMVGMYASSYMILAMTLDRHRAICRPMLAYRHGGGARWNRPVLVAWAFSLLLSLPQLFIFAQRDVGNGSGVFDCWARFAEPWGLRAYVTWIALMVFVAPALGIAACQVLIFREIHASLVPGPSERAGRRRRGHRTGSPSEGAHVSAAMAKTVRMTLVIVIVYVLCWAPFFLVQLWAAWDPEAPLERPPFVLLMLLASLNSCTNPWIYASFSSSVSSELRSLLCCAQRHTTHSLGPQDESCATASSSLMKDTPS
T8 sequence (Q62463 whole entry): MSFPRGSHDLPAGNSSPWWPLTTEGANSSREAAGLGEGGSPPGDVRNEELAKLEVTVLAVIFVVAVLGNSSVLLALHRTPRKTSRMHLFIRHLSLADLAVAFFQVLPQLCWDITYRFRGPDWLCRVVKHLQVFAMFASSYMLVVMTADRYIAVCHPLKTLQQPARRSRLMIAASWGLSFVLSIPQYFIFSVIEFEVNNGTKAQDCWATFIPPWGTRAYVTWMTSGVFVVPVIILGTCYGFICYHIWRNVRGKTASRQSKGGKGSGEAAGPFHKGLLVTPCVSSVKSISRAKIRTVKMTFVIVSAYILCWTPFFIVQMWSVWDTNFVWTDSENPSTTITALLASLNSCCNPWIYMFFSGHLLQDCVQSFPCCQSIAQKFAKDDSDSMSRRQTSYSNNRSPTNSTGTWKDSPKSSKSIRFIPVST
T5 sequence (P30518 whole entry): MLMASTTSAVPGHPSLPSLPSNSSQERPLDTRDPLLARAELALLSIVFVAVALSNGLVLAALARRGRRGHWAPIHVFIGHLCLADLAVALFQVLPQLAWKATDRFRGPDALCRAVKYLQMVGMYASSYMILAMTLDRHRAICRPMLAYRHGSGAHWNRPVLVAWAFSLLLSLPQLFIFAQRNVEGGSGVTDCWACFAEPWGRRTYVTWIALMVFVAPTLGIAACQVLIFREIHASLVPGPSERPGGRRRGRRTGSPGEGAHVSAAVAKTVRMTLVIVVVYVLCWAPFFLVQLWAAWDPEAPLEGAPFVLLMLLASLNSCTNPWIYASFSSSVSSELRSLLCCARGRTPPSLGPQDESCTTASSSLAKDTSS

CC[C@H](C)[C@@H]1NC(=O)[C@H](Cc2ccc(O)cc2)NC(=O)CCSSC[C@@H](C(=O)N2CCC[C@H]2C(=O)N[C@@H](CCCNC(=O)[C@@H](CC(=O)O)NC(=O)CCOCCOCCOCCOCCOCCNC(=O)[C@H](N)CCCCNC(=O)CCCCC[N+]2=C(C=CC=C3N(CC)c4ccc(S(=O)(=O)[O-])cc4C3(C)C)C(C)(C)c3cc(S(=O)(=O)O)ccc32)C(=O)NCC(N)=O)NC(=O)[C@H](CC(N)=O)NC(=O)[C@H](CCC(N)=O)NC1=O [Compound 11] ([Mpa]YIQNCP[Orn]([dD-PEG5-d(εLys)-X1])G-NH2; disulfide 1-6) was tested, and the Ki [1] was 2 nM, the “Tracer uptake in mouse hippocampal neurons” value ([2]; 100 nM, 1 h, E16.5 neurons cultured 14 days) was “robust uptake in subpopulations of neurons” and the “Contraction of UtSMC” value ([3]; 100 nM, live-cell imaging) was “induced rapid contractions within minutes”. The “Tracer uptake in UtSMC” value ([3]; 60 min treatment) was “accumulation was observed in vesicle‐like structures within 60 min”, the “Time to peak internalization” value [4] was 5 to 10 min and the Ki [5] was over 10000 nM. The “Cy3s signal accumulation in hOTR-expressing cells” value ([6]; post ICC, normalized to control) was “significant concentration‐dependent accumulation”.
For CC[C@H](C)[C@@H]1NC(=O)[C@@H](Cc2ccc(O)cc2)NC(=O)CC2(CCCCC2)SSC[C@@H](C(=O)N2CCC[C@H]2C(=O)N[C@@H](CCCN)C(=O)O)NC(=O)[C@H](CC(N)=O)NC(=O)[C@H]([C@@H](C)O)NC1=O [OTR antagonist (OTA), reference compound] ([dY]ITNCP[Orn]-OH; linker N-5 via X2), the Ki [7] was over 10000 nM, the “Selectivity ratio hV1aR/hOTR” value ([1]; Ki ratio, VPR affinity divided by OTR affinity) was 1.02 and the Ki [1] was 44.9 ± 8.8 nM. For the same compound, the Ki [8] was over 10000 nM, the “Effect of OTA pretreatment on tracer (11) uptake in mouse hippocampal neurons” value ([2]; 10 µM, 30 min) was “completely inhibited the uptake” and the “Effect of OTA pretreatment on tracer (11) in UtSMC” value [3] was “prevented tracer uptake as well as cellular contractions and membrane blebbing”. For the same compound, the Ki [9] was over 10000 nM, the Ki [5] was 3010 ± 346 nM and the “Selectivity ratio mV1aR/mOTR” value ([10]; Ki ratio) was over 1500. For the same compound, the “Selectivity ratio mV1bR/mOTR” value ([10]; Ki ratio) was over 1500, the “Selectivity ratio mV2R/mOTR” value ([10]; Ki ratio) was 510 and the Ki ([10]; murine receptor, transient expression, mean ± SD) was 5.9 ± 1.7 nM. For the same compound, the Ki [11] was over 10000 nM, the “Effect of OTA pretreatment on tracer (11) uptake in rat hippocampal neurons” value [12] was “prevented compound (11) internalization” and the “Effect of antagonist pretreatment on hOTR-GFP internalization and accumulation of tracers (3) and (7)” value ([6]; 10 µM, 30 min before 1 h stimulation with 100 nM tracer) was “prevented hOTR‐GFP internalization and cytoplasmic accumulation”. The “Effect of antagonist pretreatment on tracer (11) uptake” value ([6]; 10 µM, 30 min pretreatment) was “completely prevented tracer (11) uptake”, the “Effect of antagonist pretreatment on tracer (13) uptake and GFP internalization” value ([6]; 10 µM, 30 min pretreatment, tracer (13) up to 100 nM) was “completely prevented” and the Ki [13] was 45.8 ± 11.9 nM.

From paper PMC12603982 (Angewandte Chemie (International Ed. in English), 2025)
